How the values were obtained:
[1] = test system: human neuroblastoma SK-N-BE(2)-C cells; experiment: Single-cell RNA-seq in neuroblastoma cells; type: cell-based; conditions: 1 μM TSA, 25 μM E6R, 16 h
Description: Cells were grown in DMEM media supplemented with 10% FBS+PS in a 5% CO2 incubator at 37° C. […] Cells were harvested by incubating them in TryplE for 10 min. Cells were spun down for 5 min at 300 g, and the supernatant was removed. Cells were counted via hemocytometer to 20,000 cells and resuspended in 200 μL of media.
High-throughput scRNA-seq was performed using the Seq-Well S^3 platform as previously described [Gierahn et al 2017, Hughes et al 2020]. Briefly, 20,000 cells were applied to the surface of each Seq-Well array which had been preloaded with uniquely barcoded poly(dT) mRNA capture beads (Chemgenes). Following cell loading, arrays were washed with RPMI and then sealed with a polycarbonate membrane and placed in a 37° C. incubator for 30 min. After membrane sealing, the arrays were submerged in a lysis buffer (5 M guanidine thiocyanate, 10 mM EDTA, 0.1% β-mercaptoethanol, 0.1% Sarkosyl) for 20 min, and subsequently incubated in a 2 M NaCl hybridization buffer for 40 min to promote hybridization of the mRNA to the bead-bound capture oligos. Next, the beads were removed from the arrays, and they were resuspended in a master mix for reverse transcription containing Maxima H Minus Reverse Transcriptase and buffer, dNTPs, RNase inhibitor, a template switch oligonucleotide, and PEG for 30 min at room temperature, and overnight at 52° C. with end-over-end rotation. […] Then, the eluted products were quantified using a Qubit. cDNA libraries were then created using Illumina Nextera XT DNA Library Preparation Kit. Library cleanup was performed using SPRI purification as described above and library concentration and size distribution was determined using a Qubit fluorometer and Agilent TapeStation. Libraries for each sample were sequenced on a NextSeq 500 and a Nextseq 2000 with the following read structures: read 1: 21 bp; read 2: 50 bp; and index 1: 8 bp, and read 1: 26 bp; read 2: 50 bp; and index 1: 8 bp respectively. For each library 21 bases were sequenced in read 1, containing the cell barcode (12 bp) information and a unique molecular identifier (UMII, 8 bp), whereas 50 bases were obtained for the read 2 sequence. After sequencing, reads were demultiplexed using Illumina bcl2fastq (v2.20.0.422) and the resulting FASTQs were concatenated and aligned to the human “GRCh38-2020-A” reference genome using StarSolo alignment pipeline (v2.7.9a) on Terra.
Subsequently, low quality cells were filtered out, including cells with fewer than 200 unique genes, greater than 9,000 unique genes, and greater than 40% mitochondrial reads, resulting in 46,751 cells and 25,468 genes. […] Differentially expressed genes were determined using the FindMarkers function on Seurat with “test.use=MAST” and default parameters. […]

[2] = target: Sc Sin3 PAH2-Ume6 SID (TAMRA-labeled) interaction (Saccharomyces cerevisiae, UniProt P22579); experiment: biochemical
Description: Symbols represent individual data points (A) or means with SEM, and lines fitted curves.
IC50 determination for unlabeled Ume6 SID, E6, E6R and E6S: the concentrations of FITC-Ume6 SID (30 nM), and GST-Sin3 PAH2 (3 μM) were fixed and the compounds were titrated with an HP D300 (Hewlett-Packard, CA) to the assay plate.

[3] = test system: cycloheximide (CYH) sensitivity; experiment: Yeast cycloheximide sensitivity at 37° C.; type: cell-based, S. cerevisiae
Description: For assessment of cycloheximide (CYH) sensitivity at 37° C., yeast cells with the cyh2^R genotype (FIG. 29) were first transformed with an empty pDEST-AD-TRP1-CYH2 plasmid (FIG. 30) before running the different experiments. Selection of the plasmid was maintained by culturing cells in SC-W medium.

Sc Sin3 PAH2-Ume6 SID (TAMRA-labeled) interaction, sequence (P22579 402-473): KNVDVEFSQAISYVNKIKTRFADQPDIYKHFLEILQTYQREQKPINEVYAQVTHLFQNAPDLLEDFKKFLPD

For C[C@@H](NC(=O)c1c(O)n2ccccc2nc1=O)c1ccccc1 [E6R, 4-hydroxy-2-oxo-N—((R)-1-phenylethyl)-3,4-dihydro-2H-pyrido[, 2-a]pyrimidine-3-carboxamide], the “genes also downregulated by scRNA-seq, among 22 downregulated in bulk RNA-seq” value [1] was 5 genes, the “genes also upregulated in scRNA-seq, among 65 upregulated in bulk RNA-seq” value [1] was 22 genes and the IC50 [2] was 63.7 µM.

In the case of CC(/C=C/C(=O)NO)=C\[C@@H](C)C(=O)c1ccc(N(C)C)cc1 [TSA, trichostatin A], the CYH sensitivity [3] is reported as “induced”, the “genes also downregulated by scRNA-seq, among 22 downregulated in bulk RNA-seq” value [1] is reported as 13 genes and the “genes also upregulated in scRNA-seq, among 65 upregulated in bulk RNA-seq” value [1] is reported as 43 genes.

From US20240299393A1, “SMALL MOLECULE DISRUPTORS OF PROTEIN INTERACTIONS IN HISTONE DEACETYLASE COMPLEXES” (Dana-Farber Cancer Institute, Inc., priority 2021, published 2024)
